{"source": "ChEMBL document CHEMBL1201862", "about": "“PubChem BioAssay data set” (2004)", "key": {"[1]": {"molecular_target": "DNA dC->dU-editing enzyme APOBEC-3A (Homo sapiens, UniProt P31941)", "sequence (P31941 whole entry)": "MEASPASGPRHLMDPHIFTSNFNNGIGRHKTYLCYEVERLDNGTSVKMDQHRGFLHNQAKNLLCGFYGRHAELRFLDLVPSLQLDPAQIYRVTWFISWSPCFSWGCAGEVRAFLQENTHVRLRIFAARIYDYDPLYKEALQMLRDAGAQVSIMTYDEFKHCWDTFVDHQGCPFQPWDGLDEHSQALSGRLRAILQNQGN", "test": "Dose Response confirmation of small molecule APOBEC3A DNA Deaminase Inhibitors via a fluorescence-based single-stranded DNA deaminase assay. [Related pubchem assays (depositor defined):AID493011, AID493024]", "type": "functional"}, "[2]": {"molecular_target": "DNA dC->dU-editing enzyme APOBEC-3G (Homo sapiens, UniProt Q9HC16)", "sequence (Q9HC16 whole entry)": "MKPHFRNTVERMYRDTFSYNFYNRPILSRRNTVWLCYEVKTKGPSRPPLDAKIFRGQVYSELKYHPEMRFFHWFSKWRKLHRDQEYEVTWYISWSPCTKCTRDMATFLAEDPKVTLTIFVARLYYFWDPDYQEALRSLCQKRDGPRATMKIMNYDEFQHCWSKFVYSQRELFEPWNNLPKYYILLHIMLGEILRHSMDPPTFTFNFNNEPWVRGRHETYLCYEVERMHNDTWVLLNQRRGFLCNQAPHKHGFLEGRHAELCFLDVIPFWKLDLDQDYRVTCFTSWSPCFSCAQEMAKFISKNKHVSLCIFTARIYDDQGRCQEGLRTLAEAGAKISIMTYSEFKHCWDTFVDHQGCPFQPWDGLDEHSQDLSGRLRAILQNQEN", "type": "functional"}, "[3]": {"test": "THP-1 cell cytotoxicity, dose response, cytotoxicity control for non-replicating M. tuberculosis project (AID 489025)", "type": "functional"}, "[4]": {"test": "HepG2 cell cytotoxicity, dose response, cytotoxicity control for non-replicating M. tuberculosis project (AID 489018)", "type": "functional", "conditions": "Mycobacterium tuberculosis"}, "[5]": {"molecular_target": "T1, Ubiquitin-conjugating enzyme E2 N (Homo sapiens, UniProt P61088)", "T1 sequence (P61088 whole entry)": "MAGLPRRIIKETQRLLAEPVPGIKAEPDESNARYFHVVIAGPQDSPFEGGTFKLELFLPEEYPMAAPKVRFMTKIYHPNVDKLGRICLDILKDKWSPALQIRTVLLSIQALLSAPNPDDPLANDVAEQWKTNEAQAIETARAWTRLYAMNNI", "type": "functional"}, "[6]": {"test": "Vero E6 cell cytotoxicity, dose response, cytotoxicity control for non-replicating M. tuberculosis project, secondary assay (AID 492998)", "type": "functional, VeroE6", "conditions": "Vero C1008"}, "[7]": {"molecular_target": "T2, Microphthalmia-associated transcription factor (Homo sapiens, UniProt O75030)", "T2 sequence (O75030 whole entry)": "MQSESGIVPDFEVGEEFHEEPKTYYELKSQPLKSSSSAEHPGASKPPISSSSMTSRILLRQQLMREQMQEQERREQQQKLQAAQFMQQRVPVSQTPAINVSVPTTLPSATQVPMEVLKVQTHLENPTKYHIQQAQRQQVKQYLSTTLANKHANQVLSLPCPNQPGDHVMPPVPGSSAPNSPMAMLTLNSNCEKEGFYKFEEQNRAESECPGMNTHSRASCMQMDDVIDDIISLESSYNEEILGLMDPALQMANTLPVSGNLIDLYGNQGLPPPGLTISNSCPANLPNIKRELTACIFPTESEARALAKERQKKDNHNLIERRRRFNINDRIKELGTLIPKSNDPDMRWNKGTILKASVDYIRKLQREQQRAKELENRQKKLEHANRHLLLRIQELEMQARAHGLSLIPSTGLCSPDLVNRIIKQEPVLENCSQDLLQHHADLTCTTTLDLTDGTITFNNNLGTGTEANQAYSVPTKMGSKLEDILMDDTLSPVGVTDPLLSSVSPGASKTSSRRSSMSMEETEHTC", "test": "TRPM1 promoter luciferase signal decrease, dose response, MITF inhibitor project, cell-based, SK-MEL-5, cherry-picked, set 3 (AID 493073)", "type": "functional"}, "cells": {"test": "cells", "type": "functional"}, "A-375": {"system": "A-375", "test": "A375 melanoma cell viability reduction, dose response, counter-screen for MITF modulator project, cherry-pick samples, set 2 (AID 540335)", "type": "functional, cell-based", "conditions": "Homo sapiens"}, "[8]": {"test": "MDA-MB-231 cell growth inhibition, dose response, cytotoxicity control for RAD54 inhibitor project, CellTiter-Glo luminescence, cherry-pick (AID 651692)", "type": "functional, cell-based"}, "[9]": {"molecular_target": "T3, DNA repair and recombination protein RAD54-like (Homo sapiens, UniProt Q92698)", "T3 sequence (Q92698 whole entry)": "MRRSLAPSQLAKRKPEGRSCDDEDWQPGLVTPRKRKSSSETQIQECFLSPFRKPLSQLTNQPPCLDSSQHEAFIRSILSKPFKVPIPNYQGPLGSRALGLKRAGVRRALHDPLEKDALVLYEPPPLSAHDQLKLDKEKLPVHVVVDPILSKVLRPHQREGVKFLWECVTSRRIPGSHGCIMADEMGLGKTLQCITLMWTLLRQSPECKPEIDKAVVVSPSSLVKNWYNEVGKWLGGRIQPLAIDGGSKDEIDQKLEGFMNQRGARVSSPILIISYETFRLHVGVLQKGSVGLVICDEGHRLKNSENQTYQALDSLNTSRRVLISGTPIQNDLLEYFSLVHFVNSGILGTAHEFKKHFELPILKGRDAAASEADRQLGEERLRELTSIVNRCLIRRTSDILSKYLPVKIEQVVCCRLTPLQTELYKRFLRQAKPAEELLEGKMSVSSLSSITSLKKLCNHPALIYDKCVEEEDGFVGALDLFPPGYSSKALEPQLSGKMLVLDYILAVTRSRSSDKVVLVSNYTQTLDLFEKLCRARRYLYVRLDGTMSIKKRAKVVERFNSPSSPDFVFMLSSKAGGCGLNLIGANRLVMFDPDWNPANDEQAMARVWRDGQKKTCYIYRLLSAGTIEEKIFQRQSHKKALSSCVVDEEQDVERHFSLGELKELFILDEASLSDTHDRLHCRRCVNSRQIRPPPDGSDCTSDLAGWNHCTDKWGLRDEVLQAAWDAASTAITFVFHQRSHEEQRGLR", "test": "inhibitors of human RAD54 branch migration, confirmation, biochemical, fluorescence, cherry-picked samples, dose series (AID 651657)", "type": "functional"}, "[10]": {"molecular_target": "SWI/SNF-related matrix-associated actin-dependent regulator of chromatin subfamily A member 2 (Homo sapiens, UniProt P51531)", "sequence (P51531 whole entry)": "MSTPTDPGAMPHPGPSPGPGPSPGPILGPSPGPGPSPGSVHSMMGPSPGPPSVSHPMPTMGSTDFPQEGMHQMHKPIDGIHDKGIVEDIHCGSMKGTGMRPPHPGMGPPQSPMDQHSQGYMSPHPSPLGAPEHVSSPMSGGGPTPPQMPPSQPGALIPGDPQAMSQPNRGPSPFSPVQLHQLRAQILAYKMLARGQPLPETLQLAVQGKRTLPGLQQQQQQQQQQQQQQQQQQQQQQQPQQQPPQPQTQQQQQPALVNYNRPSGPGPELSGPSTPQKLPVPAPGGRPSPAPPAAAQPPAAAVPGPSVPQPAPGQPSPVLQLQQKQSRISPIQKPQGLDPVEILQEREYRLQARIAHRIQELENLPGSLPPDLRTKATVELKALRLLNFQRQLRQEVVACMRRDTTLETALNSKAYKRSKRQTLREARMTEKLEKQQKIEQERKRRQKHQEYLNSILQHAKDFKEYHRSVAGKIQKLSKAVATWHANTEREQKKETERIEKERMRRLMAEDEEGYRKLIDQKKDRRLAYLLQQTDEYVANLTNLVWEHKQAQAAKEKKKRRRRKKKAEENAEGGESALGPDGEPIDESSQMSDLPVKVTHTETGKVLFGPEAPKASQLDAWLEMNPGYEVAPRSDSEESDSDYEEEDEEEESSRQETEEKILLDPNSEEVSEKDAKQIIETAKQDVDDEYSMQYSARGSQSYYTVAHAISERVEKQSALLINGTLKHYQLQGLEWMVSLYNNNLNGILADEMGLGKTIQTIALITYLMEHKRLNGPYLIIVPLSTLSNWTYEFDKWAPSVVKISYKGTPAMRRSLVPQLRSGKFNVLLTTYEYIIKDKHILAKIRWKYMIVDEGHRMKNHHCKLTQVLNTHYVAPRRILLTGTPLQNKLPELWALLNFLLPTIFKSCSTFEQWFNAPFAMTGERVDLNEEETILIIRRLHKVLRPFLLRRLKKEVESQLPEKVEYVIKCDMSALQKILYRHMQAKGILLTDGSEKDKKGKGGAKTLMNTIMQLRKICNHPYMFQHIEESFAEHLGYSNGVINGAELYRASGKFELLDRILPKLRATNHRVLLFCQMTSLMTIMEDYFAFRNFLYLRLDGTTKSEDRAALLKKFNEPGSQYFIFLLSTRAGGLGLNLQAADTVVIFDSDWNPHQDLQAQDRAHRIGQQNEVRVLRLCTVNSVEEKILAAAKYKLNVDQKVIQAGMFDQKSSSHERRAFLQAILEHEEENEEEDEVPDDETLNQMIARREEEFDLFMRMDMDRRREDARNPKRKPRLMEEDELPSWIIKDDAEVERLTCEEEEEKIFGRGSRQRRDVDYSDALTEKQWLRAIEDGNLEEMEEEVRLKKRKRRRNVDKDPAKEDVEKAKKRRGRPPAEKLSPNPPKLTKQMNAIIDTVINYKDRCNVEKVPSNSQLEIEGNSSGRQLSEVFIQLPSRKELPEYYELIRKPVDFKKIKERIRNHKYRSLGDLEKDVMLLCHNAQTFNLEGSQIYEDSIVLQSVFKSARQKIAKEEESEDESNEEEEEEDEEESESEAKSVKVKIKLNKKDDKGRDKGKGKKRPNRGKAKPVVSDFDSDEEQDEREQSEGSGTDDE", "test": "Luminescence-based cell-based high throughput dose response assay to identify activators of the function of SWI/SNF related, matrix associated, actin dependent regulator of chromatin, subfamily a, member 2 (SMARCA2, BRM).", "type": "functional"}, "[11]": {"test": "Counterscreen for activators of the function of SWI/SNF related, matrix associated, actin dependent regulator of chromatin, subfamily a, member 2 (SMARCA2, BRM): Luminescence-based cell-based high throughput dose response assay to identify non-selective compounds using the VP16 reporter assay.", "type": "functional"}, "Prothrombin": {"molecular_target": "Prothrombin (Homo sapiens, UniProt P00734)", "test": "Thrombin 1536 HTS Dose Response Confirmation. [Related pubchem assays: 1046 (Thrombin 1536 HTS; hits were confirmed in this assay)]", "type": "functional"}, "[12]": {"molecular_target": "DNA damage-inducible transcript 3 protein (Mus musculus, UniProt P35639)", "sequence (P35639 whole entry)": "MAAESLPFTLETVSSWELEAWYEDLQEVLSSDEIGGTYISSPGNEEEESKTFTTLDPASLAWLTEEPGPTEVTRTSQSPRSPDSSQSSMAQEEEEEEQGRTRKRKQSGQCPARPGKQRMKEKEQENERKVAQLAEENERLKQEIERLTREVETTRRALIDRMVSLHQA", "type": "functional, Cricetulus griseus"}, "[13]": {"molecular_target": "T4, Replicative DNA helicase DnaB (Mycobacterium tuberculosis, UniProt P9WMR3)", "T4 sequence (P9WMR3 whole entry)": "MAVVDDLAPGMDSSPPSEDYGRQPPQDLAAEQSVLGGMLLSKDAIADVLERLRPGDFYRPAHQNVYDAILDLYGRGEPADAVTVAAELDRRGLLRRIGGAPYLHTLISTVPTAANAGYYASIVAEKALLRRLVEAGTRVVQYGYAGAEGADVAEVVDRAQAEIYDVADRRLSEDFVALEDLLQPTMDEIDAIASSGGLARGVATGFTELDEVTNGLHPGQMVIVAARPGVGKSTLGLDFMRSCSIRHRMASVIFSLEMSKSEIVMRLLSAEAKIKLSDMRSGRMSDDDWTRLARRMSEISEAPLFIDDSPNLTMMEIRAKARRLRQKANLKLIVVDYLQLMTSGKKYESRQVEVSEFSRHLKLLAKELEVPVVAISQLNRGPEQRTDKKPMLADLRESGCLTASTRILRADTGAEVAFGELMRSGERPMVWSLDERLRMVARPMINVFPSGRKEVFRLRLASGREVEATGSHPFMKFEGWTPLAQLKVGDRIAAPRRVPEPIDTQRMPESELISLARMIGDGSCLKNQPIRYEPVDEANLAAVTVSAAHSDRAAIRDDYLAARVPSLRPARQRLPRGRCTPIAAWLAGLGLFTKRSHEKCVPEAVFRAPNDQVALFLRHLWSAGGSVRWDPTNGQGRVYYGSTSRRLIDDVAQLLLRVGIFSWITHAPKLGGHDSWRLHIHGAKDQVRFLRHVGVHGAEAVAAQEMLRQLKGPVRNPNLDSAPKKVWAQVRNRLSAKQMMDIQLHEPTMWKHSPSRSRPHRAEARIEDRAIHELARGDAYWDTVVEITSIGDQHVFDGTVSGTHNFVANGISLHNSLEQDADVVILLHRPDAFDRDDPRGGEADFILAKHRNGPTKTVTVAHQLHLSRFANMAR", "test": "DnaB intein splicing inhibitors, dose response, biochemical, cell-free fluorescence (AID 449749)", "type": "functional"}, "Protein RecA": {"molecular_target": "T5, Protein RecA (Mycobacterium tuberculosis, UniProt P9WHJ3)", "T5 sequence (P9WHJ3 whole entry)": "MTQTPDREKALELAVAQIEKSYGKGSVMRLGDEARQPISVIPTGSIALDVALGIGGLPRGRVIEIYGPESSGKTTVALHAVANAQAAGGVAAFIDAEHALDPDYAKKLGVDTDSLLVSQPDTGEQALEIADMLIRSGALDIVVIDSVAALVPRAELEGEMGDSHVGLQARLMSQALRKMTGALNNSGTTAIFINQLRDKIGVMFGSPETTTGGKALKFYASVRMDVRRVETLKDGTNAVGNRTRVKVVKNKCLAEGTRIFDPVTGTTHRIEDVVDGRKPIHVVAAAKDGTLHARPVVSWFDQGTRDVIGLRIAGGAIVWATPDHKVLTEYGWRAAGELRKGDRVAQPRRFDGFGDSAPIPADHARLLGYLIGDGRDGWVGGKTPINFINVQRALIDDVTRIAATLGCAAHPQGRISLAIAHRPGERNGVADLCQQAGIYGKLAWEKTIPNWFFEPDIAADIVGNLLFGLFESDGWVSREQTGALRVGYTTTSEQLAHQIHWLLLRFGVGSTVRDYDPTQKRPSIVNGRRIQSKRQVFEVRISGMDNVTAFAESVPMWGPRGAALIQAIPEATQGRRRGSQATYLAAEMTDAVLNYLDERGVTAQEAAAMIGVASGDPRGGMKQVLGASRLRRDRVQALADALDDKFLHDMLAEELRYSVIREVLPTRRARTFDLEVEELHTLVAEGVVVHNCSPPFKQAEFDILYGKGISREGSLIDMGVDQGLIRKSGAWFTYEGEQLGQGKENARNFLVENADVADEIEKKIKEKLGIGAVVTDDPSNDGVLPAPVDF", "test": "Fluorescence Cell-Free Homogeneous Dose Retest to Identify Inhibitors of RecA-Intein Splicing Activity. [Related pubchem assays (depositor defined):AID2097, AID2223, AID489010, AID492950]", "type": "functional"}, "Genome polyprotein": {"molecular_target": "Genome polyprotein (dengue virus type 2, UniProt P29990)", "test": "Dengue-2 NS5 methyltransferase inhibitors, primary screen, biochemical, confirmation dose response (AID 588689)", "type": "functional"}, "Fatty acid synthase [14]": {"molecular_target": "T6, Fatty acid synthase (Homo sapiens, UniProt P49327)", "T6 sequence (P49327 whole entry, the tested form may be a part)": "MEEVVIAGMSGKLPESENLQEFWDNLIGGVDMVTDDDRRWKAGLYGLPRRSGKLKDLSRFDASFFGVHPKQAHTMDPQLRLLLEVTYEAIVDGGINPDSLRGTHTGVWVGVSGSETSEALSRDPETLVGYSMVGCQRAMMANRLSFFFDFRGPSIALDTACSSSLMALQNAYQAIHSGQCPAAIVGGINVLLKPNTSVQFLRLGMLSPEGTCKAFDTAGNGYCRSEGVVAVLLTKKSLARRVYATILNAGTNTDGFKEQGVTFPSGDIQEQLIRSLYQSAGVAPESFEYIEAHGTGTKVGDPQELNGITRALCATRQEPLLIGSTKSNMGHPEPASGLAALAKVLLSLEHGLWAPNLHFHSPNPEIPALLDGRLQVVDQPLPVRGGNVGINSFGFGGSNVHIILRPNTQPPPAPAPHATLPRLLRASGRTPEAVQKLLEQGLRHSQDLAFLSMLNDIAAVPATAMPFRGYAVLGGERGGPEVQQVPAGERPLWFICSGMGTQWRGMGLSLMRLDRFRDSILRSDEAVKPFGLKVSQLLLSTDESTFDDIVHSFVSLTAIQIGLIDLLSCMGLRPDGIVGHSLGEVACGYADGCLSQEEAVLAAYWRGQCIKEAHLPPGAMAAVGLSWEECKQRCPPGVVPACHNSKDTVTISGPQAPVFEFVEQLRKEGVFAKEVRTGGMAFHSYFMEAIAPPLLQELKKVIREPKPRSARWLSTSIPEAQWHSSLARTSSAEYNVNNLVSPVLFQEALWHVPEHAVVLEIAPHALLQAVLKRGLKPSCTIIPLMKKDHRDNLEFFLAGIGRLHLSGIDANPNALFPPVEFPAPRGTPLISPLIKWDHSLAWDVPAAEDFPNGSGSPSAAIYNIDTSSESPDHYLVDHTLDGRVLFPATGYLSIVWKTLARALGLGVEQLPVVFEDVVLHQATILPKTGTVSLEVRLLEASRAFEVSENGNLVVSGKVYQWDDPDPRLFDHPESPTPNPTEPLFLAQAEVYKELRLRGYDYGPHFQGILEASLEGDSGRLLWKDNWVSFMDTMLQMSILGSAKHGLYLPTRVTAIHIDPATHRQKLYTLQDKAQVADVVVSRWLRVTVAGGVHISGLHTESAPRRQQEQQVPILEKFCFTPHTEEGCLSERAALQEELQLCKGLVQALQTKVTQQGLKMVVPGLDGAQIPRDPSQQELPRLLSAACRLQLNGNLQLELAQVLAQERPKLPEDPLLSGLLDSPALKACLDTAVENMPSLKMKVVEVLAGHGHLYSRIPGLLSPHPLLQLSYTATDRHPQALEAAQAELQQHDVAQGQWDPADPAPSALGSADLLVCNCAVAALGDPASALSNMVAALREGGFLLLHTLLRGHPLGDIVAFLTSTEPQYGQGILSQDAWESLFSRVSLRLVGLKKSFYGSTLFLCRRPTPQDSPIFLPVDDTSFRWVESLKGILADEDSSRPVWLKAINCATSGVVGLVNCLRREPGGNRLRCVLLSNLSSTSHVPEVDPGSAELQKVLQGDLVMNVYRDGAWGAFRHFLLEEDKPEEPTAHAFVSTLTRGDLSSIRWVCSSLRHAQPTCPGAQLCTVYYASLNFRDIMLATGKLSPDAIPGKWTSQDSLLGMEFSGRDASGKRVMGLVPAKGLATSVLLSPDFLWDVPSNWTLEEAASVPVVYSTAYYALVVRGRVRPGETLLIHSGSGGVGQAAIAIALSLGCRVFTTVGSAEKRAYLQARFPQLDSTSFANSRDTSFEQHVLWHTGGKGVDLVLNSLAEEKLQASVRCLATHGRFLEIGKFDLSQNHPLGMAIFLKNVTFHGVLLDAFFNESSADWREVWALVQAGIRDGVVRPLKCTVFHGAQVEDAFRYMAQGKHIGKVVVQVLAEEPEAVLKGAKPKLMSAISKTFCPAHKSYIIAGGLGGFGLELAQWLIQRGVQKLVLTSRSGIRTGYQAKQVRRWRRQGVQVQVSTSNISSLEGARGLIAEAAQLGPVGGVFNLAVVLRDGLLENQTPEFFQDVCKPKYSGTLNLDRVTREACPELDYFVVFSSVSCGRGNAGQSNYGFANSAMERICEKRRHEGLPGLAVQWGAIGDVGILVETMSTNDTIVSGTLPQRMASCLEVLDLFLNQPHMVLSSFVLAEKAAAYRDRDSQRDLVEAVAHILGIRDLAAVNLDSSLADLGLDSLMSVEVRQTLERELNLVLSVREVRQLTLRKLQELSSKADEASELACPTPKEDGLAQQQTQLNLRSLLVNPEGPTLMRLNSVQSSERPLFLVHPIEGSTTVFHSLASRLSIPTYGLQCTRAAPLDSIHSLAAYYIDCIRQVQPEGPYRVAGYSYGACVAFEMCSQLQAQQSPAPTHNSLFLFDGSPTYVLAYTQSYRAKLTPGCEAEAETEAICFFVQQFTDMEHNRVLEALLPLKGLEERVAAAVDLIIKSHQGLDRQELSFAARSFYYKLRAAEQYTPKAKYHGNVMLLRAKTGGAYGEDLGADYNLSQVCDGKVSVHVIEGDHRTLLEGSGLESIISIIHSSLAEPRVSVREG", "test": "FAS thioesterase domain inhibitors, dose response, biochemical, endpoint fluorescence intensity, uHTS hits (AID 624327);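 note: fluorescence from hydrolysis of an O-methyl fluorescein acyl ester substrate by the enzyme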", "type": "functional"}, "Fatty acid synthase [15]": {"molecular_target": "T6, Fatty acid synthase", "test": "FAS thioesterase domain inhibitors, dose response, biochemical, kinetic fluorescence intensity (AID 624326);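 note: rate of fluorescence rise from hydrolysis of a fluorogenic O-methyl fluorescein ester substrate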", "type": "functional"}}, "note": "Activity calls are given as the source filed them."}
{"molecule": "CC(=O)Nc1nc(CC(C)C)cc(-c2ccco2)c1C#N", "values": [{"measurement": "IC50", "setting": "[1]", "result": "4.18 µM (active)"}, {"measurement": "IC50", "setting": "[2]", "result": "5.76 µM (active)"}]}
{"molecule": "CCOC(=O)c1c(NC(C)=O)sc2c(OCC(O)CNC(C)(C)C)c(Br)ccc12", "note": "(stereo not given)", "values": [{"measurement": "CC50", "setting": "[3]", "result": "12.5 µM (active)"}, {"measurement": "CC50", "setting": "[4]", "result": "11.9 µM (active)"}, {"measurement": "IC50", "setting": "[5]", "result": "> 20 µM (inactive)"}, {"measurement": "CC50", "setting": "[6]", "result": "7.28 µM (active)"}, {"measurement": "AC50", "setting": "[7]", "result": "7.72 µM (active)"}, {"measurement": "IC50", "setting": "cells", "result": "10.2 µM (active)"}, {"measurement": "AC50", "setting": "A-375", "result": "19.9 µM (active)"}, {"measurement": "AC50", "setting": "[8]", "result": "21 µM (active)"}, {"measurement": "AC50", "setting": "[9]", "result": "8.96 µM (active)"}, {"measurement": "EC50", "setting": "[10]", "result": "> 91.2 µM (inactive)"}, {"measurement": "EC50", "setting": "[11]", "result": "> 91.2 µM (inactive)"}]}
{"molecule": "Cc1cc(C)c(S(=O)(=O)ON2C(=O)c3ccccc3C2=O)cc1C", "values": [{"measurement": "IC50", "setting": "Prothrombin", "result": "2.57 µM (active)"}, {"measurement": "Absolute IC50 (CHOP)", "setting": "[12]", "result": 10, "unit": "µM"}, {"measurement": "AC50", "setting": "[13]", "result": "> 380 µM (inactive)"}, {"measurement": "EC50", "setting": "Protein RecA", "result": "10.2 µM (active)"}, {"measurement": "IC50", "setting": "Genome polyprotein", "result": "76.2 µM (active)"}, {"measurement": "IC50", "setting": "Fatty acid synthase [14]", "result": "0.744 µM (active)"}, {"measurement": "IC50", "setting": "Fatty acid synthase [15]", "result": "3.91 µM (active)"}]}
